Data as given in US7829665B2 (priority 2005, dated 2010).
Read-outs that look alike come from different tables or passages of the source.

Tests used:
[1] = target: T1, full-length NS3/NS4A-2 (HCV NS3 protease) (Hepatitis C virus genotype 1a, UniProt P27958); assay: NS3-NS4 protease assay / NS3 inhibition assay (RETS1 substrate, fluorescence kinetic read); assay type: biochemical
T1 construct: Recombinant E. coli or Baculovirus full-length NS3 was diluted to 3.33 μM with assay buffer; made in house; host or cells: E. coli or baculovirus (BV) expression system
Outline: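 Ki values come from IC50 fits corrected via Ki=IC50/(1+[S]/Km), with Km 2.03 μM for E. coli and 1.74 μM for baculovirus full-length NS3. Enzyme (2 or 3 nM NS3, respectively, complexed with NS4A-2) sat with compound, top concentration 50 microM, for 10 min at room temperature. Cleavage of RETS1 (8 μM working solution) was then followed by fluorescence (335/495 nm) over 30 min.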

[2] = tested on: HCV sub-genomic replicon in GS4.3 cells (HuH-7 hepatoma cells); assay: Quantitation by ELISA of Neomycin phosphotransferase II (NPTII) in the HCV sub-genomic replicon, GS4.3; assay type: cell-based, hepatitis C virus; conditions: Hepatitis C virus, Huh-7
Outline: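 Replicon-bearing HuH-7 (GS4.3) cells were exposed to compounds for 72 h in G418-free medium, top final concentration 10 μM, 1% DMSO. Lysates went to an NPTII ELISA read at 450 nm. Signal was normalised to DMSO-treated wells and EC50 was derived by four-parameter curve fitting.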

[3] = recombinant E. coli or Baculovirus full-length NS3 with NS4A-2, read-out: NS3-NS4 IC50
[4] = GS4.3 cells, 72 h incubation, NPTII ELISA, read-out: Replicon EC50

T1 sequence (P27958 1027-1657): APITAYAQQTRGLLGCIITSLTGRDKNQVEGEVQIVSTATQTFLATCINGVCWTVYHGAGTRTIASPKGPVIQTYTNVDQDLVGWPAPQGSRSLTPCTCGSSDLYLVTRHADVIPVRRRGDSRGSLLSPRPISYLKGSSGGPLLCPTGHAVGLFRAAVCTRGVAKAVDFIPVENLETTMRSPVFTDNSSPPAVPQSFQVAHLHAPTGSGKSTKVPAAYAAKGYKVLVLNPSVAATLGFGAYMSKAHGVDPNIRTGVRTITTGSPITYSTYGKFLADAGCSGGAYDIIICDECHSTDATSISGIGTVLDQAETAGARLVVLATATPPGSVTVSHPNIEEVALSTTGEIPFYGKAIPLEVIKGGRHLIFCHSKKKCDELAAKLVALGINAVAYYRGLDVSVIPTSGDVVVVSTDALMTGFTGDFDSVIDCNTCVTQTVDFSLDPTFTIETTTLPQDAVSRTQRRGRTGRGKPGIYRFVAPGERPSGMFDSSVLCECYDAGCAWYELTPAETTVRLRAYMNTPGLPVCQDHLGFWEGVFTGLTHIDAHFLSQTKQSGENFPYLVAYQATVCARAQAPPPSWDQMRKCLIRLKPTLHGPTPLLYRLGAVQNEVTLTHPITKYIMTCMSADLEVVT

Compound | IC50 [1, 3] [nM] | EC50 [2, 4] [nM] | IC50 [1] [nM] | EC50 ([2]; Table 26, read-out: EC50) [nM]
O=C(CCC(F)(F)F)N[C@H]1CCCCC/C=C\[C@@H]2C[C@@]2(C(=O)O)NC(=O)[C@@H]2C[C@@H](OC(=O)N3Cc4cccc(Cl)c4C3)CN2C1=O [Compound 142] | < 100 | < 10000 |  | 
O=C(N[C@H]1CCCCC/C=C\[C@@H]2C[C@@]2(C(=O)NS(=O)(=O)C2CC2)NC(=O)[C@H]2Cc3cc(Oc4cccc(Cl)c4)ccc3CN2C1=O)OC1CCCC1 [Compound 2005, Cyclopentyl (1aS,9S,17aR,19aR,Z)-15-(3-chlorophenoxy)-19a-(cyclopropylsulfonylcarbamoyl)-10,18-dioxo-1a,4,5,6,7,8,9,10,12,17,17a,18,19,19a-tetradecahydro-1H-11,14-diaza-bicyclo[13.1.0]hexadeca-1(15), 2-dieno[11,12-b]isoquinolin-9-ylcarbamate] | < 100 | < 1000 |  | 
COCC1(S(=O)(=O)NC(=O)[C@@]23C[C@H]2/C=C\CCCCC[C@H](NC(=O)OC2CCCC2)C(=O)N2C[C@H](OC(=O)N4Cc5cccc(F)c5C4)C[C@H]2C(=O)N3)CC1 [Compound 171] | < 100 | < 100 |  | 
O=C(NC1CCCC1)N[C@H]1CCCCC/C=C\[C@@H]2C[C@@]2(C(=O)NS(=O)(=O)C2CC2)NC(=O)C2C[C@@H](OC(=O)N3Cc4cccc(F)c4C3)CN2C1=O (some centres unmarked) [Compound 178] | < 100 | < 100 |  | 
CC(C)(C)OC(=O)N[C@H]1CCCC(F)(F)C/C=C\[C@@H]2C[C@@]2(C(=O)O)NC(=O)[C@@H]2C[C@@H](OC(=O)N3Cc4cccc(F)c4C3)CN2C1=O [Compound 1006, (2R,6S,13aS,14aR,16aS,Z)-6-(tert-butoxycarbonylamino)-9,9-difluoro-2-(4-fluoroisoindoline-2-carbonyloxy)-5,16-dioxo-1,2,3,5,6,7,8,9,10,11,13a,14,14a,15,16,16a-hexadecahydrocyclopropa(e)prrolo[1,2-a][1,4]diazacyclopentadecine-14a-carboxylic acid] | < 100 | < 10000 |  | 
CC(C)(C)OC(=O)N[C@H]1CCCCC/C=C\[C@@H]2C[C@@]2(C(=O)NC(=O)c2ccccc2)NC(=O)[C@@H]2C[C@@H](OC(=O)N3Cc4ccccc4C3)CN2C1=O [Compound 705] | < 100 | < 100 |  | 
COc1cccc(CN[C@H]2CCCCC/C=C\[C@@H]3C[C@@]3(C(=O)NS(=O)(=O)C3CC3)NC(=O)[C@@H]3C[C@@H](OC(=O)N4Cc5cccc(F)c5C4)CN3C2=O)c1 [Compound 906] | < 100 | < 100 |  | 
O=C1N[C@]2(C(=O)NS(=O)(=O)C3CC3)C[C@H]2/C=C\CCCCC[C@H](Nc2c(N3CCCCC3)c(=O)c2=O)C(=O)N2C[C@H](OC(=O)N3Cc4cccc(F)c4C3)C[C@@H]12 [Compound 198] | < 100 | < 1000 |  | 
O=C1N[C@]2(C(=O)NS(=O)(=O)C3CC3)C[C@H]2/C=C\CCCCC[C@H](Nc2nc(C(F)(F)F)cs2)C(=O)N2C[C@H](OC(=O)N3Cc4cccc(F)c4C3)C[C@@H]12 [Compound 926] | < 100 | < 100 |  | 
CC(C)(C)OC(=O)N[C@H]1CCCCC/C=C\[C@@H]2C[C@@]2(C(=O)NS(=O)(=O)C2(Cc3ccccc3)CC2)NC(=O)[C@@H]2C[C@@H](OC(=O)N3Cc4ccccc4C3)CN2C1=O [Compound 101] | < 100 | < 100 |  | 
CCOC1(S(=O)(=O)NC(=O)[C@@]23C[C@H]2/C=C\CCCCC[C@H](N)C(=O)N2C[C@H](OC(=O)N4Cc5cccc(Cl)c5C4)C[C@H]2C(=O)N3)CC1 [Compound 167] |  | < 10000 | < 100 | 
C=CCC1(S(=O)(=O)NC(=O)[C@@]23C[C@H]2/C=C\CCCCC[C@H](NC(=O)OC(C)(C)C)C(=O)N2C[C@H](OC(=O)N4Cc5ccccc5C4)C[C@H]2C(=O)N3)CC1 [Compound 105] | < 100 | < 100 |  | 
CN(C)S(=O)(=O)NC(=O)[C@@]12C[C@H]1/C=C\CCC(F)(F)CC[C@H](NC(=O)OC(C)(C)C)C(=O)N1C[C@H](OC(=O)N3Cc4cccc(F)c4C3)C[C@H]1C(=O)N2 [Compound 1015] | < 100 | < 100 |  | 
O=C(CCC(F)(F)F)N[C@H]1CCCCC/C=C\[C@@H]2C[C@@]2(C(=O)NS(=O)(=O)C2CC2)NC(=O)[C@@H]2C[C@@H](OC(=O)N3Cc4cccc(Cl)c4C3)CN2C1=O [Compound 143] | < 100 | < 100 |  | 
O=C(Cc1ccc(Cl)cc1)N[C@H]1CCCCC/C=C\[C@@H]2C[C@@]2(C(=O)NS(=O)(=O)C2CC2)NC(=O)C2CCCN2C1=O (some centres unmarked) [Compound 2143] | > 10000 |  |  | > 10000
CC(C)(C)OC(=O)N[C@H]1COCCC/C=C\[C@@H]2C[C@@]2(C(=O)NS(=O)(=O)C2CC2)NC(=O)[C@@H]2C[C@@H](OC(=O)N3Cc4cccc(F)c4C3)CN2C1=O [Compound 1020, (2R,6S,13aS,14aR,16aS,Z)-6-(tert-butoxycarbonylamino)-14a-(cyclopropylsulfonylcarbamoyl)-5,16-dioxo-2,3,5,6,7,9,10,11,13a,14,14a,15,16,16a-tetradecahydro-1H-cyclopropa(i)pyrrolo[1,2-e][1,5,8]oxadiazacyclopentadecin-2-yl 4-fluoroisoindoline-2-carboxylate] |  | < 100 | < 100 | 

Compound | IC50 [1, 3] [nM] | EC50 [2, 4] [nM] | IC50 [1] [nM] | EC50 ([2]; Table 26, read-out: EC50) [nM]
Cc1sc(N[C@H]2CCCCC/C=C\[C@@H]3C[C@@]3(C(=O)NS(=O)(=O)C3CC3)NC(=O)[C@@H]3C[C@@H](OC(=O)N4Cc5cccc(F)c5C4)CN3C2=O)nc1-c1ccccc1 [Compound 928] | < 100 | < 100 |  | 
CC(C)(C)OC(=O)N[C@H]1CCC(F)(F)CC/C=C\[C@@H]2C[C@@]2(C(=O)O)NC(=O)[C@@H]2C[C@@H](OC(=O)N3Cc4cccc(F)c4C3)CN2C1=O [Compound 1001] | < 100 | < 10000 |  | 
CC(C)(C)OC(=O)N[C@H]1CCCCC/C=C\[C@@H]2C[C@@]2(C(=O)NCCN2CCCCC2)NC(=O)[C@@H]2C[C@@H](OC(=O)N3Cc4cccc(F)c4C3)CN2C1=O [Compound 604] | > 10000 | > 10000 |  | 
CC(C)(C)OC(=O)N[C@H]1COCCCCC[C@@H]2C[C@@]2(C(=O)NS(=O)(=O)C2CC2)NC(=O)[C@@H]2C[C@@H](OC(=O)N3Cc4cccc(F)c4C3)CN2C1=O [Compound 1022, (2R,6S,13aR,14aR,16aS)-6-(tert-butoxycarbonylamino)-14a-(cyclopropylsulfonylcarbamoyl)-5,16-dioxohexadecahydro-1H-cyclopropa(i)pyrrolo[1,2-e][1,5,8]oxadiazacyclopentadecin-2-yl 4-fluoroisoindoline-2-carboxylate] | < 100 | < 100 |  | 
O=C(N[C@H]1CCCCC/C=C\[C@@H]2C[C@@]2(C(=O)NS(=O)(=O)N2CCC(F)(F)C2)NC(=O)C2C[C@@H](OC(=O)N3Cc4ccccc4C3)CN2C1=O)OC1CCCC1 (some centres unmarked) [Compound 227] | < 100 | < 100 |  | 
CC(C)(C)OC(=O)N[C@H]1CCCCC/C=C\[C@@H]2C[C@@]2(C(=O)O)NC(=O)[C@@H]2C[C@@H](OC(=O)N3Cc4ccc(N5CCOCC5)cc4C3)CN2C1=O [Compound 176] | < 100 | > 10000 |  | 
CC(C)(C)OC(=O)N[C@H]1CCCOC/C=C\[C@@H]2C[C@@]2(C(=O)NCC2CC2)NC(=O)[C@@H]2C[C@@H](OC(=O)N3Cc4cccc(F)c4C3)CN2C1=O [Compound 1019] | < 100 | < 1000 |  | 
O=C1N[C@]2(C(=O)NS(=O)(=O)C3CC3)C[C@H]2/C=C\CCCCC[C@H](NCc2cc(F)cc(F)c2)C(=O)N2C[C@H](OC(=O)N3Cc4cccc(F)c4C3)C[C@@H]12 [Compound 903] | < 100 | < 100 |  | 
[2H]C([2H])([2H])N(C([2H])([2H])[2H])S(=O)(=O)NC(=O)[C@@]12C[C@H]1/C=C\CCCCC[C@H](NC(=O)OC(C)(C)C)C(=O)N1C[C@H](OC(=O)N3Cc4ccccc4C3)C[C@H]1C(=O)N2 [Compound 204] | < 100 | < 100 |  | 
CCC(C)(C)Nc1c(N[C@H]2CCCCC/C=C\[C@@H]3C[C@@]3(C(=O)NS(=O)(=O)C3CC3)NC(=O)[C@@H]3C[C@@H](OC(=O)N4Cc5cccc(F)c5C4)CN3C2=O)c(=O)c1=O [Compound 194] | < 100 | < 10000 |  | 
NC(=S)N[C@H]1CCCCC/C=C\[C@@H]2C[C@@]2(C(=O)NS(=O)(=O)C2CC2)NC(=O)[C@@H]2C[C@@H](OC(=O)N3Cc4cccc(F)c4C3)CN2C1=O [Compound 923] | < 100 | < 1000 |  | 
CC(C)(C)OC(=O)N[C@H]1CCCCC/C=C\[C@@H]2C[C@@]2(C(=O)NCCF)NC(=O)[C@@H]2C[C@@H](OC(=O)N3Cc4cccc(F)c4C3)CN2C1=O [Compound 611] | < 1000 | < 10000 |  | 
CN(C)c1c(N[C@H]2CCCCC/C=C\[C@@H]3C[C@@]3(C(=O)NS(=O)(=O)C3CC3)NC(=O)[C@@H]3C[C@@H](OC(=O)N4Cc5cccc(F)c5C4)CN3C2=O)c(=O)c1=O [Compound 185] | < 100 | < 10000 |  | 
N[C@H]1CCCCC/C=C\[C@@H]2C[C@@]2(C(=O)NS(=O)(=O)C2CC2)NC(=O)[C@@H]2C[C@@H](OC(=O)N3Cc4c(Cl)ccc(Cl)c4C3)CN2C1=O [Compound 156] |  | < 1000 | < 100 | 
CC(C)(C)OC(=O)N[C@H]1CCCCC/C=C\[C@@H]2C[C@@]2(C(=O)NCC(O)(C(F)(F)F)C(F)(F)F)NC(=O)[C@@H]2C[C@@H](OC(=O)N3Cc4cccc(F)c4C3)CN2C1=O [Compound 613] | < 1000 | < 1000 |  | 
